Test results reported in patent US20260356851A1, “TRICYCLIC COMPOUNDS AND USES THEREOF” (HUTCHMED LIMITED, priority 2023, published 2026).

Tests used:
Type in all cases: cell-based
[1] = target: T1, pERK1/2 (Thr202/Tyr204), NCI-1H358 (KRAS G12C) (Homo sapiens, UniProt P01116, G12C); test: Assay of intracellular pERK1/2 (Thr202/Tyr204) phosphorylation in NCI-H358 cells (KRAS G12C); settings: pERK1/2, 2 days, read-out: NCI-H358 (KRAS G12C) IC50
T1 construct: pERK1/2 HTRF read-out
Outline: (§1)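 Cells (10000-12000/well) exposed to 3-fold compound dilutions for 2 days at 37 °C, then lysed; pERK1/2 (Thr202/Tyr204) measured by HTRF with d2 and cryptate antibodies, 665/615 nm ratio.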

[2] = target: T2, pERK1/2 (Thr202/Tyr204), PANC-1 (KRAS G121D) (Homo sapiens, UniProt P01116, G12D); test: Assay of intracellular pERK1/2 (Thr202/Tyr204) phosphorylation in PANC-1 cells (KRAS G12D); settings: pERK1/2, 2 days, read-out: PANC-1 (KRAS G12D) IC50
T2 construct: pERK1/2 HTRF read-out
T2 sequence (P01116 1-188 isoform P01116-2 G12D): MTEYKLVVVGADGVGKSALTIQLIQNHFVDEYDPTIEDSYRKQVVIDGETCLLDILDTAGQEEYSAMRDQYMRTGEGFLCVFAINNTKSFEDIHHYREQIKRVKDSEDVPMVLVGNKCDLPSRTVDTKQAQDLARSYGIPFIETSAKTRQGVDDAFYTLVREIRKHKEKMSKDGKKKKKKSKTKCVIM
Outline: as §1

[3] = target: T3, pERK1/2 (Thr202/Tyr204), NCI-1H441 (KRAS G12V) (Homo sapiens, UniProt P01116, G12V); test: Assay of intracellular pERK1/2 (Thr202/Tyr204) phosphorylation in NCI-H441 cells (KRAS G12V); settings: pERK1/2, 2 days, read-out: NCI-H441 (KRAS G12V) IC50
T3 construct: pERK1/2 HTRF read-out
T3 sequence (P01116 1-188 isoform P01116-2 G12V): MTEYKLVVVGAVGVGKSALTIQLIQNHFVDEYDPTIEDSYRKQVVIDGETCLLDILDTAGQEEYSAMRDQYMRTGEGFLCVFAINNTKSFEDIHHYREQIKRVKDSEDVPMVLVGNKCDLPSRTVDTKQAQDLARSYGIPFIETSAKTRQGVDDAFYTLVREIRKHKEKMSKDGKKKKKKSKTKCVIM
Outline: as §1

T1 sequence (P01116 1-188 isoform P01116-2 G12C): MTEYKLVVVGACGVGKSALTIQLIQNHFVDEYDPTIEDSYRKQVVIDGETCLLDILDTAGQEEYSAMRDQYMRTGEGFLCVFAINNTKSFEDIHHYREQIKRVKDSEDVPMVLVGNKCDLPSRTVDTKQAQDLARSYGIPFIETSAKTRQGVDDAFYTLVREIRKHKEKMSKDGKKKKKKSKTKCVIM

Cc1c(F)c(N)cc(-c2nc3c4c(nc(OC[C@@]56CCCN5C[C@H](F)C6)nc4c2F)N(C(C)c2cccnc2N)[C@H](C)CO3)c1C(F)(F)F (single isomer, unassigned) [Compound 255, 3-((R or S)-1-((R)-5-(5-amino-4-fluoro-3-methyl-2-(trifluoromethyl)phenyl)-4-fluoro-2-(((2R,7aS)-2-fluorotetrahydro-1H-pyrrolizin-7a(5H)-yl)methoxy)-9-methyl-8,9-dihydro-10H-7-oxa-1,3,6,10-tetraazacyclohepta[de]naphthalen-10-yl)ethyl)pyridin-2-amine]
IC50 [1]: 37 nM | IC50 [2]: > 100 nM | IC50 [3]: > 100 nM

Cc1c(F)c(N)cc(-c2nc3c4c(nc(OC[C@@]56CCCN5C[C@H](F)C6)nc4c2F)N(C(C)c2cccnc2N)[C@H](C)CO3)c1C(F)(F)F (single isomer, unassigned) [Compound 256, 3-((R or S)-1-((R)-5-(5-amino-4-fluoro-3-methyl-2-(trifluoromethyl)phenyl)-4-fluoro-2-(((2R,7aS)-2-fluorotetrahydro-1H-pyrrolizin-7a(5H)-yl)methoxy)-9-methyl-8,9-dihydro-10H-7-oxa-1,3,6,10-tetraazacyclohepta[de]naphthalen-10-yl)ethyl)pyridin-2-amine]
IC50 [1]: > 100 nM | IC50 [2]: > 100 nM | IC50 [3]: > 100 nM

Cc1ccnc(N)c1C(C)N1CCOc2nc(-c3cc(N)c(F)c(C)c3C(F)(F)F)c(F)c3nc(OC[C@@]45CCCN4C[C@H](F)C5)nc1c23 (single isomer, unassigned) [Compound 257, 3-((R or S)-1-(5-(5-amino-4-fluoro-3-methyl-2-(trifluoromethyl)phenyl)-4-fluoro-2-(((2R,7aS)-2-fluorotetrahydro-1H-pyrrolizin-7a(5H)-yl)methoxy)-8,9-dihydro-10H-7-oxa-1,3,6,10-tetraazacyclohepta[de]naphthalen-10-yl)ethyl)-4-methylpyridin-2-amine]
IC50 [1]: 2 nM | IC50 [2]: 51 nM | IC50 [3]: 6 nM

Cc1ccnc(N)c1C(C)N1CCOc2nc(-c3cc(N)c(F)c(C)c3C(F)(F)F)c(F)c3nc(OC[C@@]45CCCN4C[C@H](F)C5)nc1c23 (single isomer, unassigned) [Compound 258, 3-((R or S)-1-(5-(5-amino-4-fluoro-3-methyl-2-(trifluoromethyl)phenyl)-4-fluoro-2-(((2R,7aS)-2-fluorotetrahydro-1H-pyrrolizin-7a(5H)-yl)methoxy)-8,9-dihydro-10H-7-oxa-1,3,6,10-tetraazacyclohepta[de]naphthalen-10-yl)ethyl)-4-methylpyridin-2-amine]
IC50 [1]: > 100 nM | IC50 [2]: > 100 nM | IC50 [3]: > 100 nM

Cc1c(F)c(N)cc(-c2nc3c4c(nc(OC[C@@]56CCCN5C[C@H](F)C6)nc4c2F)N([C@H](C)c2cn(C)nc2N)CCO3)c1C(F)(F)F (single isomer, unassigned) [Compound 260, 4-((R or S)-1-(5-(5-amino-4-fluoro-3-methyl-2-(trifluoromethyl)phenyl)-4-fluoro-2-(((2R,7aS)-2-fluorotetrahydro-1H-pyrrolizin-7a(5H)-yl)methoxy)-8,9-dihydro-10H-7-oxa-1,3,6,10-tetraazacyclohepta[de]naphthalen-10-yl)ethyl)-1-methyl-1H-pyrazol-3-amine]
IC50 [1]: 30 nM | IC50 [2]: > 100 nM | IC50 [3]: 65 nM

Cc1c(F)c(N)cc(-c2nc3c4c(nc(OC[C@@]56CCCN5C[C@H](F)C6)nc4c2F)N(C(C)c2cn(C)nc2N)CCO3)c1C(F)(F)F (single isomer, unassigned) [Compound 261, 4-((R or S)-1-(5-(5-amino-4-fluoro-3-methyl-2-(trifluoromethyl)phenyl)-4-fluoro-2-(((2R,7aS)-2-fluorotetrahydro-1H-pyrrolizin-7a(5H)-yl)methoxy)-8,9-dihydro-10H-7-oxa-1,3,6,10-tetraazacyclohepta[de]naphthalen-10-yl)ethyl)-1-methyl-1H-pyrazol-3-amine]
IC50 [1]: > 100 nM | IC50 [2]: > 100 nM | IC50 [3]: > 100 nM

Cc1c(F)c(N)cc(-c2nc3c4c(nc(OC[C@@]56CCCN5C[C@H](F)C6)nc4c2F)N(C(C)c2cccnc2N)[C@@H](C)CO3)c1C(F)(F)F (single isomer, unassigned) [Compound 263, 3-((R or S)-1-((S)-5-(5-amino-4-fluoro-3-methyl-2-(trifluoromethyl)phenyl)-4-fluoro-2-(((2R,7aS)-2-fluorotetrahydro-1H-pyrrolizin-7a(5H)-yl)methoxy)-9-methyl-8,9-dihydro-10H-7-oxa-1,3,6,10-tetraazacyclohepta[de]naphthalen-10-yl)ethyl)pyridin-2-amine]
IC50 [1]: 14 nM | IC50 [2]: 35 nM | IC50 [3]: 40 nM

CNc1ncccc1C(C)N1CCOc2nc(-c3cc(N)c(F)c(C)c3C(F)(F)F)c(F)c3nc(OC[C@@]45CCCN4C[C@H](F)C5)nc1c23 (single isomer, unassigned) [Compound 264, 3-((R or S)-1-(5-(5-amino-4-fluoro-3-methyl-2-(trifluoromethyl)phenyl)-4-fluoro-2-(((2R,7aS)-2-fluorotetrahydro-1H-pyrrolizin-7a(5H)-yl)methoxy)-8,9-dihydro-10H-7-oxa-1,3,6,10-tetraazacyclohepta[de]naphthalen-10-yl)ethyl)-N-methylpyridin-2-amine]
IC50 [1]: 93 nM | IC50 [2]: > 100 nM | IC50 [3]: > 100 nM

CNc1ncccc1C(C)N1CCOc2nc(-c3cc(N)c(F)c(C)c3C(F)(F)F)c(F)c3nc(OC[C@@]45CCCN4C[C@H](F)C5)nc1c23 (single isomer, unassigned) [Compound 265, 3-((R or S)-1-(5-(5-amino-4-fluoro-3-methyl-2-(trifluoromethyl)phenyl)-4-fluoro-2-(((2R,7aS)-2-fluorotetrahydro-1H-pyrrolizin-7a(5H)-yl)methoxy)-8,9-dihydro-10H-7-oxa-1,3,6,10-tetraazacyclohepta[de]naphthalen-10-yl)ethyl)-N-methylpyridin-2-amine]
IC50 [1]: > 100 nM | IC50 [2]: > 100 nM | IC50 [3]: > 100 nM

Cc1cc(N)cc(-c2nc3c4c(nc(OC[C@@]56CCCN5C[C@H](F)C6)nc4c2F)N(C(C)c2cccnc2N)[C@@H](C)CO3)c1C(F)(F)F (single isomer, unassigned) [Compound 267]
IC50 [1]: 0.3 nM | IC50 [2]: 0.2 nM | IC50 [3]: 0.6 nM

CC(c1cccnc1N)N1c2nc(OC[C@@]34CCCN3C[C@H](F)C4)nc3c(F)c(-c4cc(N)c(F)c(Cl)c4C(F)(F)F)nc(c23)OC[C@@H]1C (single isomer, unassigned) [Compound 269, 3-((R or S)-1-((S)-5-(5-amino-3-chloro-4-fluoro-2-(trifluoromethyl)phenyl)-4-fluoro-2-(((2R,7aS)-2-fluorotetrahydro-1H-pyrrolizin-7a(5H)-yl)methoxy)-9-methyl-8,9-dihydro-10H-7-oxa-1,3,6,10-tetraazacyclohepta[de]naphthalen-10-yl)ethyl)pyridin-2-amine]
IC50 [1]: 0.2 nM | IC50 [2]: 0.6 nM | IC50 [3]: 0.3 nM

CC(c1cccnc1N)N1c2nc(OC[C@@]34CCCN3C[C@H](F)C4)nc3c(F)c(-c4cc(N)cc(Cl)c4C(F)(F)F)nc(c23)OC[C@@H]1C (single isomer, unassigned) [Compound 270, 3-((R or S)-1-((S)-5-(5-amino-3-chloro-2-(trifluoromethyl)phenyl)-4-fluoro-2-(((2R,7aS)-2-fluorotetrahydro-1H-pyrrolizin-7a(5H)-yl)methoxy)-9-methyl-8,9-dihydro-10H-7-oxa-1,3,6,10-tetraazacyclohepta[de]naphthalen-10-yl)ethyl)pyridin-2-amine]
IC50 [1]: 0.3 nM | IC50 [2]: 0.3 nM | IC50 [3]: 0.7 nM

CC(c1cccnc1N)N1c2nc(OC[C@@]34CCCN3C[C@H](F)C4)nc3c(F)c(-c4cc(N)cc(Cl)c4C(F)(F)F)nc(c23)OC[C@@H]1C (single isomer, unassigned) [Compound 271, 3-((R or S)-1-((S)-5-(5-amino-3-chloro-2-(trifluoromethyl)phenyl)-4-fluoro-2-(((2R,7aS)-2-fluorotetrahydro-1H-pyrrolizin-7a(5H)-yl)methoxy)-9-methyl-8,9-dihydro-10H-7-oxa-1,3,6,10-tetraazacyclohepta[de]naphthalen-10-yl)ethyl)pyridin-2-amine]
IC50 [1]: 66 nM | IC50 [2]: > 100 nM | IC50 [3]: > 100 nM

CC(c1cccnc1N)N1c2nc(OC[C@@]34CCCN3C[C@H](F)C4)nc3c(F)c(-c4cc(N)c(F)c(Cl)c4C(F)(F)F)nc(c23)OC[C@@H]1C (single isomer, unassigned) [Compound 272, 3-((R or S)-1-((S)-5-(5-amino-3-chloro-4-fluoro-2-(trifluoromethyl)phenyl)-4-fluoro-2-(((2R,7aS)-2-fluorotetrahydro-1H-pyrrolizin-7a(5H)-yl)methoxy)-9-methyl-8,9-dihydro-10H-7-oxa-1,3,6,10-tetraazacyclohepta[de]naphthalen-10-yl)ethyl)pyridin-2-amine]
IC50 [1]: 57 nM | IC50 [2]: > 100 nM | IC50 [3]: > 100 nM

C#Cc1c(F)ccc2cc(O)cc(-c3nc4c5c(nc(OC[C@@]67CCCN6C[C@H](F)C7)nc5c3F)N(C(C)c3cccnc3N)[C@@H](C)CO4)c12 (single isomer, unassigned) [Compound 273, 4-((S)-10-((R or S)-1-(2-aminopyridin-3-yl)ethyl)-4-fluoro-2-(((2R,7aS)-2-fluorotetrahydro-1H-pyrrolizin-7a(5H)-yl)methoxy)-9-methyl-9,10-dihydro-8H-7-oxa-1,3,6,10-tetraazacyclohepta[de]naphthalen-5-yl)-5-ethynyl-6-fluoronaphthalen-2-ol]
IC50 [1]: 0.5 nM | IC50 [2]: 0.4 nM | IC50 [3]: 1 nM
